Measurements taken from patent US7875604B2, “Compounds that inhibit HIV particle formation” (University of Virginia Patent Foundation, priority 2004, dated 2011).
pIC50: −log10 of the molar value.

Tests used:
[1] = tested on: U1 cells latently infected with HIV-1; assay: U1 latency activation assay (TNF-α induced, supernatant reverse transcriptase); assay type: cell-based; settings: U1 cell assay, analogs, Table 8
Protocol: U1 cells were obtained from the AIDS Research and Reference Reagent Program and maintained under standard culture conditions in RPMI 1640 supplemented with 10% fetal bovine serum (heat inactivated), 2 mM L-glutamine, 100 U/mL penicillin and 100 μg/mL streptomycin. U1 cells are derived from the histocytic leukemia cell line U937, and contain an integrated copy of a cytokine and/or phorbol inducible provirus (HIV-1IIIB). Cultures were maintained in such a way as to ensure exponential growth of the populations. Addition of TNF-α to the cell culture induces HIV-1, so that inhibition of virus production indicates an inhibition of a post-integration function of the HIV-1 life cycle. This is where an inhibitor of Rev function would be expected to act. […]
(§1) At the time of the assay, cells were collected by centrifugation and counted by hemacytometer. If cell viability by Trypan Blue dye exclusion was less than 70% the assay was terminated. The cells were adjusted to 5×10^4 cells/mL and 100 μL placed in 96 well plates with 100 μL media containing a final concentration of 5 ng/mL TNF-α and the test compound. Cultures were incubated for 3 days and supernatants harvested. Compound toxicity was determined by MTS dye reduction. Virus expression was measured by supernatant reverse transcriptase activity.
Reverse transcriptase was assayed to measure virus particle release as described above for the PBMC assay.
(§2) Compounds were tested in the U1 latency assay using the maximum high-test concentration possible based on the supplied stocks which are listed in table 3. Compounds were tested using the maximum high-test concentration possible based on the supplied stocks. Compounds were prepared at a 2× high-test concentration by combining drug stock with tissue culture media at a ratio of 5 μL of drug to 995 μL of media. This 2× high-test sample was subsequently serially diluted in tissue culture media using 1/2 log dilutions. This series of 2× concentrated drug was subsequently diluted 1:1 by combining with an equal volume of cells in media in the 96-well plates used for the assay. Temacrazine a known inhibitor of HIV transcription was used as a control compound that is active in the post-integration part of the HIV life cycle.
(§3) Compounds were tested using the maximum high-test concentration possible based on the supplied stocks. Compounds were prepared at a 2× high-test concentration by combining drug stock with tissue culture media at a ratio of 5 μL of drug to 995 μL of media. This 2× high-test (HT) sample was subsequently serially diluted in tissue culture media using 1/2 log dilutions. This series of 2× concentrated drug was subsequently diluted 1:1 by combining with an equal volume of cells in media in the 96-well plates used for the assay.

U1 cells = assay: MTS staining for cell viability in U1 cell assay; assay type: cell-based; settings: analogs, Table 8, MTS, read-out: TC50 (the source's name)
Protocol: as §1
At assay termination, the assay plates were stained with the soluble tetrazolium-based dye MTS (CellTiter 96 Reagent, Promega) to determine cell viability and quantify compound toxicity as described for the PBMC assay.
as §2, §3

Cc1n[nH]c2nc3ccc(Cl)cc3c(-c3ccccc3)c12 [Compound 111]
pIC50 [1]: 5.77
CC50 (U1 cells): > 50 µM

Cc1n[nH]c2nc3ccc(Br)cc3c(-c3ccccc3)c12 [Compound 112]
pIC50 [1]: 5.97
CC50 (U1 cells): > 50 µM

COc1cc2cc(C(=O)Nc3ccccc3)c(N)nc2cc1OC [Compound 113]
pIC50 [1]: 4.56
CC50 (U1 cells): > 75 µM

COc1cc2cc3c(=O)[nH]c(-c4ccc(C)cc4)nc3nc2cc1OC [Compound 114]
pIC50 [1]: 4.84
CC50 (U1 cells): > 75 µM

COc1ccc2nc3c(c(N)c2c1)CCCC3 [Compound 211]
pIC50 [1]: 5.04
CC50 (U1 cells): 48.5 µM

N#Cc1c(C(F)(F)F)nc2ccc(F)cc2c1N [Compound 212]
pIC50 [1]: 6.32
CC50 (U1 cells): 28.6 µM

Nc1c2c(nc3ccc([N+](=O)[O-])cc13)CCCC2=O [Compound 213]
pIC50 [1]: 6.08
CC50 (U1 cells): 58.6 µM

C=CCc1c(C)nc2ccc(OC)cc2c1N [Compound 214]
pIC50 [1]: 5.04
CC50 (U1 cells): > 75 µM

COc1ccc(-c2c(C(C)=O)c(C)nc3sc(C(N)=O)c(N)c23)cc1 [Compound 311]
pIC50 [1]: 5.78
CC50 (U1 cells): > 75 µM

CCc1c(C)nc2sc(C(=O)c3ccc(Cl)cc3)c(N)c2c1C [Compound 313]
pIC50 [1]: < 4.30
CC50 (U1 cells): > 50 µM

Cc1ccc2c(N)c(C(N)=O)sc2n1 [Compound 314]
pIC50 [1]: 5.68
CC50 (U1 cells): > 75 µM

Cc1nc2sc(C(N)=O)c(N)c2c(C)c1CC(=O)c1ccccc1 [Compound 315]
pIC50 [1]: 6.12
CC50 (U1 cells): > 75 µM

NC(=O)c1sc2nc(-c3cccnc3)ccc2c1N [Compound 316]
pIC50 [1]: 4.63
CC50 (U1 cells): > 75 µM

NC(=O)c1sc2nc(-c3cccs3)cc(C(F)(F)F)c2c1N [Compound 317]
pIC50 [1]: < 4.12
CC50 (U1 cells): > 75 µM

Cc1cc(C(F)(F)F)c2c(N)c(C(N)=O)sc2n1 [Compound 318]
pIC50 [1]: > 6.63
CC50 (U1 cells): > 75 µM

CN1CCc2nc3sc(C(N)=O)c(N)c3cc2C1 [Compound 319]
pIC50 [1]: 4.69
CC50 (U1 cells): > 37.5 µM

COCc1cc(C)nc2sc(C(N)=O)c(N)c12 [Compound 320]
pIC50 [1]: 6.28
CC50 (U1 cells): > 75 µM

NC(=O)c1sc2nc3c(cc2c1N)CCCC3 [Compound 321]
pIC50 [1]: 5.71
CC50 (U1 cells): > 75 µM

NC(=O)c1sc2nc(-c3cccs3)cc(-c3ccc(F)cc3)c2c1N [Compound 322]
pIC50 [1]: 5.05
CC50 (U1 cells): 17.4 µM

Cc1ccc(-c2cc(-c3ccccc3)nc3sc(C(N)=O)c(N)c23)cc1 [Compound 323]
pIC50 [1]: 6.13
CC50 (U1 cells): 22.6 µM

NC(=O)c1sc2nc3c(cc2c1N)CCC3 [Compound 324]
pIC50 [1]: 5.66
CC50 (U1 cells): > 75 µM

CN(C)c1ccnc2sc(C(N)=O)c(N)c12 [Compound 325]
pIC50 [1]: 6.55
CC50 (U1 cells): > 75 µM

CCOC(=O)c1c2c(nc3sc(C(N)=O)c(N)c13)CCCC2 [Compound 327]
pIC50 [1]: 6.22
CC50 (U1 cells): 65.8 µM

Cc1cc2c(N)c(C(N)=O)sc2nc1C [Compound 328]
pIC50 [1]: 5.97
CC50 (U1 cells): 37 µM

CCCc1ccc2c(N)c(C(N)=O)sc2n1 [Compound 329]
pIC50 [1]: 5.69
CC50 (U1 cells): 58.4 µM

Cc1cc2c(N)c(C(N)=O)sc2nc1-c1ccc(F)cc1 [Compound 330]
pIC50 [1]: 5.16
CC50 (U1 cells): > 75 µM

CCc1c(C)nc2sc(C(=O)NCC(=O)O)c(N)c2c1C [Compound 331]
pIC50 [1]: 4.18
CC50 (U1 cells): > 75 µM

Cc1ccc(-c2cc(C(F)(F)F)c3c(N)c(C(N)=O)sc3n2)cc1 [Compound 332]
pIC50 [1]: < 4.12
CC50 (U1 cells): 22.5 µM

NC(=O)c1sc2nc(Cc3ccccc3)cc(C(F)(F)F)c2c1N [Compound 334]
pIC50 [1]: 5.63
CC50 (U1 cells): > 75 µM

COc1ccc(-c2cc(-c3ccccc3)nc3sc(C(N)=O)c(N)c23)cc1 [Compound 335]
pIC50 [1]: 5.85
CC50 (U1 cells): 53.9 µM

CC1CCc2nc3sc(C(N)=O)c(N)c3cc2C1 (centres unmarked) [Compound 336]
pIC50 [1]: 5.53
CC50 (U1 cells): > 75 µM

NC(=O)c1sc2nc3ccccc3cc2c1N [Compound 337]
pIC50 [1]: 5.62
CC50 (U1 cells): > 75 µM

CCOC(=O)c1c(C)nc2sc(C(N)=O)c(N)c2c1-c1ccccc1 [Compound 338]
pIC50 [1]: 5.28
CC50 (U1 cells): > 75 µM

COc1ccc(-c2cc(-c3ccc(OC)cc3)c3c(N)c(C(N)=O)sc3n2)cc1 [Compound 339]
pIC50 [1]: 5.89
CC50 (U1 cells): 38.3 µM

CCOC(=O)c1sc(Cl)nc1C(F)(F)F [Compound 411]
pIC50 [1]: < 4.12
CC50 (U1 cells): > 75 µM

O=C(Nc1ccccc1)c1sc(Cl)nc1C(F)(F)F [Compound 412]
pIC50 [1]: 4.78
CC50 (U1 cells): 51.7 µM

O=C(Nc1cccc(F)c1)c1sc(Cl)nc1C(F)(F)F [Compound 413]
pIC50 [1]: 4.68
CC50 (U1 cells): 50.7 µM

O=C(Nc1cccc(C(F)(F)F)c1)c1sc(Cl)nc1C(F)(F)F [Compound 414]
pIC50 [1]: 4.84
CC50 (U1 cells): 14.7 µM

O=C(Nc1ccccc1F)c1sc(Cl)nc1C(F)(F)F [Compound 415]
pIC50 [1]: 4.43
CC50 (U1 cells): 51.2 µM

Cc1ccc(NC(=O)c2sc(Cl)nc2C)cc1C [Compound 416]
pIC50 [1]: 6.12
CC50 (U1 cells): > 75 µM

Cc1ccc(NC(=O)c2sc(Cl)nc2C)cc1 [Compound 417]
pIC50 [1]: 5.79
CC50 (U1 cells): 51.9 µM

Cc1nc(Cl)sc1C(=O)Nc1ccc(C(F)(F)F)cc1 [Compound 418]
pIC50 [1]: 5.66
CC50 (U1 cells): > 75 µM

Cc1nc(Cl)sc1C(=O)Nc1ccc(C(C)(C)C)cc1 [Compound 420]
pIC50 [1]: 5.17
CC50 (U1 cells): > 75 µM

N#Cc1ccc(NC(=O)c2sc(Cl)nc2-c2ccccc2)cc1 [Compound 421]
pIC50 [1]: < 4.12
CC50 (U1 cells): > 75 µM

Cc1ccc(NC(=O)c2sc(Cl)nc2-c2ccccc2)cc1C [Compound 422]
pIC50 [1]: 4.84
CC50 (U1 cells): > 75 µM

Cc1ccc(NC(=O)c2sc(Cl)nc2-c2ccccc2)c(C)c1 [Compound 423]
pIC50 [1]: 4.37
CC50 (U1 cells): > 75 µM

COc1ccccc1NC(=O)c1cc(Cl)nnc1Cl [Compound 511]
pIC50 [1]: 4.84
CC50 (U1 cells): 17.3 µM

O=C(c1cc(Cl)nnc1Cl)N1CCOCC1 [Compound 512]
pIC50 [1]: 4.58
CC50 (U1 cells): > 75 µM

CN1CCN(C(=O)c2cc(Cl)nnc2Cl)CC1 [Compound 513]
pIC50 [1]: 5.15
CC50 (U1 cells): > 75 µM

O=C(c1cc(Cl)nnc1Cl)N1CCCC1 [Compound 514]
pIC50 [1]: < 4.12
CC50 (U1 cells): > 75 µM

O=C(NCc1ccccn1)c1cc(Cl)nnc1Cl [Compound 515]
pIC50 [1]: 4.87
CC50 (U1 cells): > 75 µM

Oc1nc(S)ncc1-c1ccccc1 [Compound 612]
pIC50 [1]: < 4.12
CC50 (U1 cells): > 75 µM

Oc1nc(S)nc(O)c1-c1ccccc1 [Compound 613]
pIC50 [1]: < 4.12
CC50 (U1 cells): > 75 µM

O=[N+]([O-])c1ccc(-c2cnc(NO)nc2)cc1 [Compound 614]
pIC50 [1]: < 4.12
CC50 (U1 cells): > 75 µM

COc1ccc(-c2cnc(S(C)(=O)=O)nc2)cc1 [Compound 615]
pIC50 [1]: 4.92
CC50 (U1 cells): > 75 µM

CSc1ncc2c(n1)[nH]c1ccccc12 [Compound 616]
pIC50 [1]: 6.04
CC50 (U1 cells): > 75 µM

COc1ccc(-c2cnc(OC(C)(C)C)nc2OC(C)(C)C)cc1OC [Compound 617]
pIC50 [1]: < 4.12
CC50 (U1 cells): > 75 µM

COc1ccc(-c2cnc(OC(C)(C)C)nc2OC(C)(C)C)cc1 [Compound 618]
pIC50 [1]: 4.74
CC50 (U1 cells): 53.6 µM

Cc1cccc(-c2nc(Nc3ccc(I)cc3)c3ccccc3n2)c1 [Compound 718]
pIC50 [1]: 4.33
CC50 (U1 cells): 50.1 µM

Cc1ccc(Nc2ncnc3ccccc23)cc1C [Compound 719]
pIC50 [1]: 5.76
CC50 (U1 cells): > 75 µM

CCOC(=O)c1ccc(Nc2ncnc3ccccc23)cc1 [Compound 720]
pIC50 [1]: 5.44
CC50 (U1 cells): > 75 µM

FC(F)(F)c1cccc(Nc2nc(-c3ccccc3)nc3ccccc23)c1 [Compound 722]
pIC50 [1]: 4.66
CC50 (U1 cells): 35 µM

COC(=O)c1ccc(Nc2nc(-c3ccccc3Cl)nc3ccccc23)cc1 [Compound 728]
pIC50 [1]: 4.87
CC50 (U1 cells): 17.5 µM

Cc1ccc(-c2nc(Nc3ccc(I)cc3)c3ccccc3n2)cc1 [Compound 729]
pIC50 [1]: < 4.12
CC50 (U1 cells): > 75 µM

CCOc1ccccc1Nc1nc(-c2ccc(C)cc2)nc2ccccc12 [Compound 730]
pIC50 [1]: < 4.12
CC50 (U1 cells): > 75 µM

Clc1ccccc1Nc1nc(-c2ccc(Br)cc2)nc2ccccc12 [Compound 731]
pIC50 [1]: 5.78
CC50 (U1 cells): > 75 µM

Brc1ccc(Nc2nc(-c3ccncc3)nc3ccccc23)cc1 [Compound 734]
pIC50 [1]: 5.39
CC50 (U1 cells): > 12.5 µM
